Assay results taken from US6365591B1, “Isoxazolecarboxamide derivatives” (Recordati, S.A., Chemical and Pharmacueticals Company, priority 1999, dated 2002).
Like-named read-outs stand apart in the source and are kept apart here.

Assays:
α1L adrenoceptor = biological target: T1, α1L adrenoceptor (Oryctolagus cuniculus, UniProt O02824); assay: Functional antagonism of noradrenaline-induced contractions of rabbit aorta pretreated with chloroethylclonidine; assay type: biochemical
T1 sequence (O02824 1-466): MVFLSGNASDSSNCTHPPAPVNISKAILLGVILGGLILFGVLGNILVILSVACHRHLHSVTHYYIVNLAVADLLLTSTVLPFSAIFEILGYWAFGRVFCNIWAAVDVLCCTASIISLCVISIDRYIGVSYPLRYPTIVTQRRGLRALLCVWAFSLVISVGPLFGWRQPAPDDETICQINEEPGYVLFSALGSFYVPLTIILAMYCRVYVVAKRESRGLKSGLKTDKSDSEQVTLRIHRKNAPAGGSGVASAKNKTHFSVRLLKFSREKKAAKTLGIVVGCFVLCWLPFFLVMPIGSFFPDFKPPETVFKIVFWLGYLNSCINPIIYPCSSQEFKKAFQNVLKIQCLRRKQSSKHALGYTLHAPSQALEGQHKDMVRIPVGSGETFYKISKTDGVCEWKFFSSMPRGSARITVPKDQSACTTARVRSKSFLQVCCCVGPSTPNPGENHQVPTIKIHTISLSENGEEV
Protocol: Adult male New Zealand rabbits were sacrificed by cervical dislocation. The aorta was removed, placed in Krebs-Henseleit buffer and dissected free of adhering tissue. […] Desmethylimipramine (0.1 μM) and corticosterone (1 μM) to block neuronal and extraneuronal uptake of NA, (±)-propranol (1 μM) to block β adrenoceptors and yohimbine (0.1 μM) to block α2 adrenoceptors were added to the buffer.
Each antagonist concentration was tested using 2-3 aortic rings from different rabbits.
The logarithm of these dose ratio −1 was plotted against the logarithm of the compound concentrations (Schild plot) to evaluate the affinity constant Kb.

[1] = system: recombinant α1a-adrenoceptor; settings: literature statement (Leonardi et al. 1997); cited from earlier work
[2] = system: prostatic urethral pressure (noradrenaline-induced); settings: cited from earlier work
[3] = system: prostatic urethral pressure (hypogastric-nerve stimulation); settings: anaesthetised dogs, i.v.; data from Leonardi et al. 1997; cited from earlier work
diastolic blood pressure = settings: cited from earlier work; for DBP ED25: dose inducing a 25% decrease in diastolic blood pressure: anaesthetised dogs, i.v., data from Leonardi et al. 1997
[4] = dog model, literature (Leonardi et al. 1997)

In the case of `COc1ccccc1N1CCN(CCCNC(=O)c2cccc3c(=O)c(C)c(-c4ccccc4)oc23)CC1` [Compound A], the “Functional affinity for the α1L adrenoceptor subtype, pKb” value (α1L adrenoceptor) is given as 8.91, the “affinity for the α1A adrenoceptor” value [1] is given as “good affinity” and the “UP ID50 NA: dose inhibiting by 50% the urethral contractions induced by noradrenaline” value ([2]; anaesthetised dogs, i.v., data from Leonardi et al. 1997) is given as 0.0024 mg/kg. The “inhibition of contractility of the prostatic urethra” value [2, 4] was “selectively inhibit contractility of the prostatic urethra”, the “UP ID50 HYP: dose inhibiting by 50% the urethral contractions induced by hypogastric-nerve stimulation” value [3] was 0.0067 mg/kg and the “DBP ED25: dose inducing a 25% decrease in diastolic blood pressure” value (diastolic blood pressure; first of two DBP values (the one that gives R1, NA)) was 0.243 mg/kg. The “DBP ED25: dose inducing a 25% decrease in diastolic blood pressure” value (diastolic blood pressure; second of two DBP values (the one that gives R2, HYP)) was 0.177 mg/kg and the “effects on blood pressure” value (diastolic blood pressure; [4]) was “without substantial effects on blood pressure”.
